# According to ChEMBL document CHEMBL4834408, “Sesquiterpenoids from Chrysanthemum indicum with Inhibitory Effects on NO Production” (J Nat Prod, 2021):
# Key:
# RAW264.7 = experiment: Inhibition of LPS induced NO production in mouse RAW264.7 cells measured after 24 hrs by Griess reagent based assay; format: functional, cell-based; conditions: RAW264.7, 24 h
# [1] = Cytotoxicity against mouse RAW264.7 cells assessed as reduction in cell viability measured after 24 hrs by MTT assay; format: cell-based
IC50 (RAW264.7) [µM],Structure (SMILES),CC50 at 24 h [1] [µM]
48.8,CC1=CC[C@H](C(C)(C)O)CC1=O,98
97.8,C=C[C@](C)(CCC/C(C)=C\C(=O)C=C(C)C)O[C@@H]1O[C@H](CO)[C@@H](O)[C@H](O)[C@H]1O,> 100
> 100,C=C[C@](C)(CC/C=C(\C)CC(=O)CC(C)C)O[C@@H]1O[C@H](CO)[C@@H](O)[C@H](O)[C@H]1O,> 100
> 100,C=C[C@](C)(CCC/C(C)=C/C(=O)C=C(C)C)O[C@@H]1O[C@H](CO)[C@@H](O)[C@H](O)[C@H]1O,> 100
9.9,C=C1C(=O)O[C@@H]2/C=C(\C)CC/C=C(\C)C[C@H](OC(=O)/C(C)=C\C)[C@@H]12,27
34.5,COc1ccc(-c2cc(=O)c3c(O)cc(O)cc3o2)cc1O [DIOSMETIN],
> 100,CC1=CC[C@H]([C@](C)(O)C/C=C/C(C)(C)O)CC1=O,> 100
> 100,O=C(O)[C@H]1O[C@@H](Oc2cc(O)c3c(=O)cc(-c4ccc(O)cc4)oc3c2)[C@H](O)[C@@H](O)[C@@H]1O,> 100
87.5,O=c1cc(-c2ccc(O)c(O)c2)oc2cc(O[C@@H]3O[C@H](CO)[C@@H](O)[C@H](O)[C@H]3O)cc(O)c12 [GALUTEOLIN],> 100
> 100,C=C[C@](C)(CC/C=C(\C)CC(=O)C=C(C)C)O[C@@H]1O[C@H](CO)[C@@H](O)[C@H](O)[C@H]1O,> 100
48.4,C=C[C@@](C)(O)C[C@H](O)/C=C(\C)CC(=O)C=C(C)C,> 100
1.8,C=C1C(=O)O[C@@H]2[C@H]3C(C)=CC(=O)[C@H]3[C@@H](C)C[C@H](OC(=O)/C(C)=C\C)[C@@H]12,22.5
45.4,COc1ccc(-c2cc(=O)c3c(O)cc(O[C@@H]4O[C@H](CO)[C@@H](O)[C@H](O)[C@H]4O)cc3o2)cc1 [TILIANINE],> 100
> 100,COc1ccc(-c2cc(=O)c3c(O)cc(O[C@@H]4O[C@H](CO[C@@H]5O[C@@H](C)[C@H](O)[C@@H](O)[C@H]5O)[C@@H](O)[C@H](O)[C@H]4O)cc3o2)cc1 [ACACIIN],> 100
92.4,COc1ccc(-c2cc(=O)c3c(O)cc(O[C@@H]4O[C@H](C(=O)O)[C@@H](O)[C@H](O)[C@H]4O)cc3o2)cc1,> 100
> 100,O=C(O)[C@H]1O[C@@H](Oc2cc(O)c3c(=O)cc(-c4ccc(O)c(O)c4)oc3c2)[C@H](O)[C@@H](O)[C@@H]1O,> 100
3,C=C1C(=O)O[C@H]2[C@H]1[C@@H](OC(=O)C(C)CC)CC(C)=C1C[C@@H]3O[C@]3(C)[C@@H]12 (stereo partly drawn),21.5
> 100,C=C(C)C(O)CC[C@@](C)(O)[C@H]1CC=C(C)C(=O)C1 (stereo partly drawn),> 100
56.7,CC1(C)C[C@H](O)C[C@@]2(C)OC(=O)C=C12 [LOLIOLIDE],> 100
53.7,O=c1cc(-c2ccc(O)cc2)oc2cc(O[C@@H]3O[C@H](CO)[C@@H](O)[C@H](O)[C@H]3O)cc(O)c12 [APIGETRIN],> 100
27,C=C1C(=O)O[C@@H]2[C@H]3C(C)=CC(=O)[C@@H]3[C@@H](C)C[C@H](OC(=O)/C(C)=C\C)[C@@H]12,> 100
18.4,O=c1cc(-c2ccc(O)cc2)oc2cc(O)cc(O)c12 [APIGENIN],65.1
0.2,C=C1C(=O)O[C@H]2[C@H]1[C@@H](OC(=O)/C(C)=C\C)CC(C)=C1C[C@@H]3O[C@]3(C)[C@@H]12,21.7
> 100,C[C@@H]1O[C@@H](OC[C@H]2O[C@@H](Oc3cc(O)c4c(=O)cc(-c5ccc(O)c(O)c5)oc4c3)[C@H](O)[C@@H](O)[C@@H]2O)[C@H](O)[C@H](O)[C@H]1O,> 100
29.9,CC(=O)/C=C/[C@]1(O)C(C)(C)C[C@H](O)C[C@@]1(C)O,> 100
31.2,COc1ccc([C@@H]2CC(=O)c3c(O)cc(O)cc3O2)cc1O [HESPERETIN],> 100
5.9,COc1ccc(-c2cc(=O)c3c(O)cc(O)cc3o2)cc1 [ACACETIN],60.9
